Assay results: patent publication US11104670B2, “4-pyrimidin-5-ylmethyl-morpholine derivatives and the use thereof as medicament” (Boehringer Ingelheim International GmbH, priority 2018, dated 2021)

Legend:
Type in all cases: cell-based
NMDA NR1/NR2B receptor [1] = biological target: NMDA NR1/NR2B receptor (Homo sapiens (Human), UniProt Q05586+Q13224); assay: NMDA NR1/NR2B FLIPR calcium assay in HEK293 cells; conditions: glycine/glutamate-induced calcium, read-out: IC50, in vitro NR2B affinity in the FLIPR assay
NMDA NR1/NR2B receptor (Homo sapiens (Human), UniProt Q05586+Q13224), sequence (Q13224 27-1484, other chains not shown): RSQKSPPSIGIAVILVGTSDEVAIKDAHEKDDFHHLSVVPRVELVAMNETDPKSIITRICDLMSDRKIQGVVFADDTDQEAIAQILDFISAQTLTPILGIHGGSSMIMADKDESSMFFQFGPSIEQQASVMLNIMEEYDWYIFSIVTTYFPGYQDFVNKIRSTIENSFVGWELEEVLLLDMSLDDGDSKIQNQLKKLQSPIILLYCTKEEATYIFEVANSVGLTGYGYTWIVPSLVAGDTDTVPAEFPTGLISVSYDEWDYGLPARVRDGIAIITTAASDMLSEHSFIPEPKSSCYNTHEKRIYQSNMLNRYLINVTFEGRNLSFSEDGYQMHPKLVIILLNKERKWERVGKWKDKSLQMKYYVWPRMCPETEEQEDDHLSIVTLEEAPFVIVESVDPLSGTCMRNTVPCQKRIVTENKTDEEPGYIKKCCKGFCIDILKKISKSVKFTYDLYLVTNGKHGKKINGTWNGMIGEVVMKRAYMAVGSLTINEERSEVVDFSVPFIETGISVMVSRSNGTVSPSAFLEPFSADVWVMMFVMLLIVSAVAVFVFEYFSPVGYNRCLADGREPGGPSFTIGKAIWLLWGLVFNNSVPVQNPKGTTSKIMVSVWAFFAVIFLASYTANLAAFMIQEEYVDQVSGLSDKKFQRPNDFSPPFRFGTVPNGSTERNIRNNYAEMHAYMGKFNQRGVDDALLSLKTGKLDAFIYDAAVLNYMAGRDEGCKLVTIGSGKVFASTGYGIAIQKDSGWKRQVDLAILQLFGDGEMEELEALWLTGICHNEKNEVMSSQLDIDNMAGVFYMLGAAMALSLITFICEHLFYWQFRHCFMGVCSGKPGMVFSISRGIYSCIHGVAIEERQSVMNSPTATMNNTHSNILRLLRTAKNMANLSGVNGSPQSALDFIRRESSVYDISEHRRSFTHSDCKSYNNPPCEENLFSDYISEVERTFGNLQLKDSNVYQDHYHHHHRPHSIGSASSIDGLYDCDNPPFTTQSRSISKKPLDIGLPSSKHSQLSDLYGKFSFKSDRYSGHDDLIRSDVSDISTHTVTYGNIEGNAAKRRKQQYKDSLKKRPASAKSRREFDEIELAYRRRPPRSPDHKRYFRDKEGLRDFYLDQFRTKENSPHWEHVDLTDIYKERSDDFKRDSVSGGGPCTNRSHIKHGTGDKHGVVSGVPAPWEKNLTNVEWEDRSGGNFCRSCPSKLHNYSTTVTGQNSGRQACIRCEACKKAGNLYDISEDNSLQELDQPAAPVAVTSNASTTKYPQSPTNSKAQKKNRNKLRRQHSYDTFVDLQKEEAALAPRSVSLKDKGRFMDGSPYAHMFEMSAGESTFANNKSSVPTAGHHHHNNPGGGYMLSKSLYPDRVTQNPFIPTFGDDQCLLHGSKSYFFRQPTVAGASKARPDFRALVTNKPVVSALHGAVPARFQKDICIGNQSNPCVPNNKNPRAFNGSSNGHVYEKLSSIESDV
Method: (§1) A human HEK293 cell line with tetracyclin-inducible expression of NMDA NR1/NR2B receptor was used as a test system for compound efficacy and potency. The cell line was purchased from ChanTest, Catalog #CT6121. Compound activity was determined by measuring the effect of compounds on intracellular calcium concentration induced by glycine/glutamate agonism in a FLIPRtetra system (Molecular Devices).
(§2) The cells were obtained as frozen cells in cryo-vials and stored until use at −150° C. Cells were grown in culture medium (DMEM/F12, 10% FBS, 5 μg/mL Blasticidin, 150 μg/mL Zeozin, 500 μg/mL Geneticin). […] For sub-culturing the cells were detached from flasks by Versene. For the assay, cells were detached, washed twice with induction medium (DMEM/F12 without glutamine, 10% FBS, 2 μg/mL Tetracycline, 2 mM Ketamine) and seeded to 384 well pure coat amine plates (Becton Dickinson, 50000 cells per well in 50 μl) 48 h prior to assay in induction medium.
(§3) The test compounds were dissolved in 100% DMSO at a concentration of 10 mM and in a first step diluted in DMSO to a concentration of 5 mM, followed by serial dilution steps in 100% DMSO. Dilution factor and number of dilution steps may vary according to needs. Typically 8 different concentrations by 1:5 dilutions were prepared in duplicate, further intermediate dilutions (1:37.5) of the substances were carried out with aqueous assay buffer (137 mM NaCl, 4 mM KCl, 1.8 mM CaCl2), 10 mM HEPES, 10 mM Glucose, pH 7.4) resulting in a compound concentration 3 times above the final test concentration and DMSO at 2.7% resulting in 0.9% final DMSO concentration in the assay.
(§4) At the assay day cells were washed 3× with assay buffer (as described above), 10 μL buffer remained in the wells after washing. 10 μL Ca kit loading buffer (AAT Bioquest; prepared from the kit containing the following components: Component A: Fluo-8 NW dissolved in 200 μL DMSO and 20 μl of this solution are mixed with 10 ml buffer prepared out of component B and C, Component B: 10× Pluronic® F127 Plus diluted 1:10 in component C, Component C: HHBS (Hanks with 20 mM Hepes) was added to the cells and the plates were incubated with lid for 60 minutes at room temperature. 20 μl assay buffer containing 60 μM glycine (20 μM final) and 3 μM glutamate (1 μM final) was added to column 1-23, column 24 got assay buffer without glycine/glutamate to serve as negative unstimulated control. Fluorescence (indicating the calcium influx as a result of the NR1/NR2B ion channel activation) was read on the FLIPRtetra device for 60 seconds to monitor the glutamate induced effects. After 2 minutes 20 μL of compound dilution prepared as described above or controls (row 1-22) in assay buffer were carefully added to the wells. […] The average of 2 measurements at 5 minutes and 5 min 10 seconds after compound addition is calculated and further used for IC50 calculations. Each assay microtiter compound dilution plate contained wells (in column 23 or 24) with DMSO controls instead of compound as controls for glycine/glutamate induced fluorescence (high controls) and wells with 1 μM of a reference NR2B NAM as low controls (Compound 22; reference: Layton, Mark E et al, ACS Chemical Neuroscience 2011, 2(7), 352-362).
(§5) The output file of the reader contains the well number and measured average fluorescence units. For data evaluation and calculation, the measurement of the low control was set as 0% control and the measurement of the high control was set as 100% control. The IC50 values were calculated using the standard 4 parameter logistic regression formula. Calculation: [y=(a−d)/(1+(x/c)^b)+d], a=low value, d=high value; x=conc M; c=IC50 M; b=slope.

Nav1.6 channel = Nav1.6 channel (Homo sapiens (Human), UniProt Q9UQD0); assay: Nav1.6 inhibition, IonWorks Quattro electrophysiology; conditions: for inhibition at 1 µM / Normalized % inhibition at 5 μM / inhibition at 5 µM: normalized to vehicle (0%) and maximal inhibition control (100%)
Nav1.6 channel, sequence (Q9UQD0 whole entry): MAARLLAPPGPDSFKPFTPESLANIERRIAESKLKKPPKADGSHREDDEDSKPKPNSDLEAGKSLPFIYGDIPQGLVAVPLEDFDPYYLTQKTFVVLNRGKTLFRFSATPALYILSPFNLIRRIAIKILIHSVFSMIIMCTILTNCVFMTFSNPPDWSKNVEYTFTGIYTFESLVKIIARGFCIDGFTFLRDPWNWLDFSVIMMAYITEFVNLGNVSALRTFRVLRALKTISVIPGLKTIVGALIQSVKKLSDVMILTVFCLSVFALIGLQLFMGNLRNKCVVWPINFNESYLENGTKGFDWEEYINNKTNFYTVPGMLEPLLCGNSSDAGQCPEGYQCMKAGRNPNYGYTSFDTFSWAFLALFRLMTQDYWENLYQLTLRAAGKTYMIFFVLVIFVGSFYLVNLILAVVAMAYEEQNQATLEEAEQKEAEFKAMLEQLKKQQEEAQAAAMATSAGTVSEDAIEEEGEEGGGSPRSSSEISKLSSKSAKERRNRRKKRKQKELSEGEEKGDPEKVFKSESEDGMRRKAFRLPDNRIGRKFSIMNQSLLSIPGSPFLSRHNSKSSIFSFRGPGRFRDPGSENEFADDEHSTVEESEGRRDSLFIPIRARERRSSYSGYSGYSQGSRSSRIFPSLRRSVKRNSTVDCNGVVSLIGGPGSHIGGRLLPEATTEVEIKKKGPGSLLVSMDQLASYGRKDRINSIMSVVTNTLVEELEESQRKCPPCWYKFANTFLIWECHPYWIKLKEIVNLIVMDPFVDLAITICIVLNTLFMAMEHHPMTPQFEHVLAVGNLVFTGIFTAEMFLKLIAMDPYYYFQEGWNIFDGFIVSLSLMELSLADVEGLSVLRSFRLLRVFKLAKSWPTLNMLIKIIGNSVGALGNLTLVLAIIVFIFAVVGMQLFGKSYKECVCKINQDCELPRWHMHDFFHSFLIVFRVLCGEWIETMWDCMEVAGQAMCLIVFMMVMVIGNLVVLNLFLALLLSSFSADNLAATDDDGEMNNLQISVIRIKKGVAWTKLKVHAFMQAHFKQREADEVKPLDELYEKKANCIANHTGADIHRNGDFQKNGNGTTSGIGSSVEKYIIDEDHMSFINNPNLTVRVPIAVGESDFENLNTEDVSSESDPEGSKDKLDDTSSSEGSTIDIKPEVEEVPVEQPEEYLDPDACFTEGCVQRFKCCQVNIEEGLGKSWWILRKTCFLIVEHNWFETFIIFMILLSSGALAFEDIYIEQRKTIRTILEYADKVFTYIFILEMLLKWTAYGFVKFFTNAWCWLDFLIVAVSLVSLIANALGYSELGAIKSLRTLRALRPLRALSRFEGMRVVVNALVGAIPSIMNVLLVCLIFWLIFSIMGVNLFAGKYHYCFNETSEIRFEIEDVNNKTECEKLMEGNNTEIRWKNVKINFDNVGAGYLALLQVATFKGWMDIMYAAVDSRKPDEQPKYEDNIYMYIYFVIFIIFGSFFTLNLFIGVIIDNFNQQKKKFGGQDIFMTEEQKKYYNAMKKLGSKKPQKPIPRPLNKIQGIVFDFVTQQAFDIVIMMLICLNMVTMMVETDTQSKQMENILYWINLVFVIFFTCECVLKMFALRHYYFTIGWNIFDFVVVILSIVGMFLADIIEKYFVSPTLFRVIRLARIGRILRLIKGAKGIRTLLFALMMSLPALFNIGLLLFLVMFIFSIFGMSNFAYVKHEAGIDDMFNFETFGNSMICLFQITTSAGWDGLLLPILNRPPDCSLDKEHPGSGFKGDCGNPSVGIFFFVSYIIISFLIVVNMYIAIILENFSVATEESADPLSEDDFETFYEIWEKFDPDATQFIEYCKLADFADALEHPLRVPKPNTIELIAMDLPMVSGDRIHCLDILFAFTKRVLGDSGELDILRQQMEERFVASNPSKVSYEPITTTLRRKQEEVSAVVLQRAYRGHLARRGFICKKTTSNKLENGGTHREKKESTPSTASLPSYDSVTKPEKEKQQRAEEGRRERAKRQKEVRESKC
Method: Ion Works Quattro electrophysiological platform
The compounds were prepared in DMSO at 300× the final assay concentrations of 1 and 5 μM.
The 300× DMSO stock solutions were transferred into assay plates where 2 μl per well of each 300× stock solution were placed. All assay plates were stored at −80° C. until the day of assay.
On the day of the assay, the appropriate assay plate was thawed at room temperature, centrifuged, and 198 μl of external recording solution was added and mixed thoroughly. This provided a 1:100 dilution. A further 1:3 dilution occurred upon addition to the cells in the IonWorks Quattro electrophysiological platform, giving a 1:300 dilution in total.
On each assay plate, at least 8 wells were reserved for vehicle control (0.3% DMSO) and at least 8 wells for each positive control specific to the cell line tested. The positive controls were tested at a maximal blocking and an approximate IC50 concentration. As positive control Lidocaine at concentrations of 30 and 1000 μM was used.
Amphotericin B was used to obtain electrical access to the cell interior at a final concentration of 200 μg/ml in internal recording solution.
State-dependent inhibition: Sodium channels when held at depolarized potential or long test pulse, the channels open and inactivate and then stay inactivated until the membrane potential is stepped back to hyperpolarized potentials, when the inactivated channels recover from inactivation into closed state.
Cells were held at −120 mV. In order to completely inactivate the sodium channels (pulse 1), the cells were pulsed to +0 mV for 2500 ms and stepped back to −120 mV for 10 ms (to completely recover from inactivation, however channels that had drugs bound to them will not recover from inactivation) before stepping to +0 mV for 20 ms (pulse 2).
Both the positive and vehicle control data associated with each cell line assayed are shown below as an example. The mean is shown for each positive and negative control as solid symbol with the total number of individual well replicates given next to the solid symbol. In addition, the individual data of each well are shown on the graph as open symbols so that the variation about the mean value can be readily assessed.
In FIG. 2, a Post/Pre value of 1.0 corresponds to 0% inhibition, a Post/Pre value of 0.0 corresponds to 100% inhibition.
Tables 3 and 4 show the normalized percentage inhibition of Nav1.6 channel. […] (see also the figure Assay Control Results above).

NMDA NR1/NR2B receptor [2] = biological target: NMDA NR1/NR2B receptor (Homo sapiens (Human), UniProt Q13224); assay: NMDA NR1/NR2B FLIPR calcium assay in HEK293 cells; conditions: glycine/glutamate-induced calcium, read-out: IC50, in vitro NR2B affinity in the FLIPR assay
NMDA NR1/NR2B receptor (Homo sapiens (Human), UniProt Q13224), sequence (Q13224 27-1484, other chains not shown): as the sequence (Q13224 27-1484, other chains not shown) above
Method: as §1, §2, §3, §4, §5

Structure (SMILES) | IC50 (NMDA NR1/NR2B receptor [1]) | inhibition at 1 µM (Nav1.6 channel) | Normalized % inhibition at 5 μM (Nav1.6 channel) | inhibition at 5 µM (Nav1.6 channel) | IC50 (NMDA NR1/NR2B receptor [2]) | other results
CCNC(=O)C1CN(Cc2cccc(Oc3ccccc3)c2)CCO1 (stereo not drawn) [Example 100, reference compound] | > 8.89 µM | 2.2% | 37.8% | 37.8% | – | –
CNC(=O)[C@@H]1CN(Cc2cnc(Oc3c(F)cccc3F)nc2)CCO1 [Example 34] | – | – | – | – | 362 nM | –
O=C(C1CN(Cc2cccc(Oc3ccccc3)c2)CCO1)N1CCOCC1 (stereo not drawn) [Example 106, reference compound] | > 9.26 µM | -0.7% | 14% | 14% | – | –
CNC(=O)[C@@H]1CN(Cc2cnc(Oc3ccccc3)nc2)CCO1 [Example 33] | – | – | – | – | 509 nM | –
CCN(CC)CC(=O)Nc1c(C)cccc1C [Lidocaine, reference compound] | – | – | – | – | – | inhibition of evoked Nav1.6 currents (in words) (Nav1.6 channel; assay control, 30 and 1000 μM): inhibited evoked currents in a concentration and use dependent manner; inhibition at 1000 µM (Nav1.6 channel; read-out: maximum inhibition at P1 (not normalized)): 46.4 to 47.2%
CCCCNc1ccc(C(=O)OCCN(C)C)cc1 [Tetracaine, reference compound] | – | – | – | – | – | state-dependent inhibition of Nav1.6 (in words) (Nav1.6 channel; depolarized vs hyperpolarized potential): much stronger at depolarized potentials than at hyperpolarized potential
O=C(NCc1ccccn1)C1CN(Cc2cccc(Oc3ccccc3)c2)CCO1 (stereo not drawn) [Example 105, reference compound] | > 9.26 µM | 18.2% | 68% | 68% | – | –
CNC(=O)[C@@H]1CN(Cc2cnc(Oc3c(C)cccc3F)nc2)CCO1 [Example 35] | – | – | – | – | 933 nM | –
